Test results: the supplement of paper PMC11451515

Tested on: SEM cells
Assay: cell viability relative to DMSO control; higher = less cytotoxic
Settings: 48 h
In short: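 Library compounds in DMSO were pin-dosed into 1536-well plates (5 μl) holding NOMO1 or SEM (500 cells/well) or P12-Ichikawa (1000 cells/well) leukemia cells, across an 11-point threefold series of 47 μM to 0.79 nM. Each cell line had been adapted for at least four passages in each medium. CellTiter-Glo One luminescence was read after 48 h at 37°C. Viability is the per-plate percentage relative to DMSO wells, with cell-free wells as background.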

[1] = HPLM + 10% dialyzed FBS, 0.000781 µM
[2] = HPLM + 10% dialyzed FBS, 0.00234 µM
[3] = HPLM + 10% dialyzed FBS, 0.00702 µM
[4] = HPLM + 10% dialyzed FBS, 0.0211 µM
[5] = HPLM + 10% dialyzed FBS, 0.0632 µM
[6] = HPLM + 10% dialyzed FBS, 0.19 µM
[7] = HPLM + 10% dialyzed FBS, 0.569 µM
[8] = HPLM + 10% dialyzed FBS, 1.71 µM
[9] = HPLM + 10% dialyzed FBS, 5.12 µM
[10] = HPLM + 10% dialyzed FBS, 15.4 µM
[11] = HPLM + 10% dialyzed FBS, 46.1 µM
[12] = RPMI 5 mM glucose + 10% FBS, 0.000781 µM
[13] = RPMI 5 mM glucose + 10% FBS, 0.00234 µM
[14] = RPMI 5 mM glucose + 10% FBS, 0.00702 µM
[15] = RPMI 5 mM glucose + 10% FBS, 0.0211 µM
[16] = RPMI 5 mM glucose + 10% FBS, 0.0632 µM
[17] = RPMI 5 mM glucose + 10% FBS, 0.19 µM
[18] = RPMI 5 mM glucose + 10% FBS, 0.569 µM
[19] = RPMI 5 mM glucose + 10% FBS, 1.71 µM
[20] = RPMI 5 mM glucose + 10% FBS, 5.12 µM
[21] = RPMI 5 mM glucose + 10% FBS, 15.4 µM
[22] = RPMI 5 mM glucose + 10% FBS, 46.1 µM
[23] = RPMI 5 mM glucose + 10% dialyzed FBS, 0.000781 µM
[24] = RPMI 5 mM glucose + 10% dialyzed FBS, 0.00234 µM
[25] = RPMI 5 mM glucose + 10% dialyzed FBS, 0.00702 µM
[26] = RPMI 5 mM glucose + 10% dialyzed FBS, 0.0211 µM
[27] = RPMI 5 mM glucose + 10% dialyzed FBS, 0.0632 µM
[28] = RPMI 5 mM glucose + 10% dialyzed FBS, 0.19 µM
[29] = RPMI 5 mM glucose + 10% dialyzed FBS, 0.569 µM
[30] = RPMI 5 mM glucose + 10% dialyzed FBS, 1.71 µM
[31] = RPMI 5 mM glucose + 10% dialyzed FBS, 5.12 µM
[32] = RPMI 5 mM glucose + 10% dialyzed FBS, 15.4 µM
[33] = RPMI 5 mM glucose + 10% dialyzed FBS, 46.1 µM

Compound	cell viability [1]	cell viability [2]	cell viability [3]	cell viability [4]	cell viability [5]	cell viability [6]	cell viability [7]	cell viability [8]	cell viability [9]	cell viability [10]	cell viability [11]	cell viability [12]	cell viability [13]	cell viability [14]	cell viability [15]	cell viability [16]	cell viability [17]	cell viability [18]	cell viability [19]	cell viability [20]	cell viability [21]	cell viability [22]	cell viability [23]	cell viability [24]	cell viability [25]	cell viability [26]	cell viability [27]	cell viability [28]	cell viability [29]	cell viability [30]	cell viability [31]	cell viability [32]	cell viability [33]
COc1nccc(-c2c(-c3ccc(F)cc3)ncn2C2CCC(O)CC2)n1 (stereo unspecified)	124%	123%	132%	128%	122%	105%	125%	113%	106%	116%	36.1%	102%	116%	97.3%	103%	96.6%	56.7%	53.4%	63.9%	63.8%	47.9%	12.2%	103%	126%	116%	114%	123%	127%	111%	112%	94.9%	87.9%	26.8%
CC1(C)Cc2c(sc(NC(=S)NC(=O)c3ccccc3)c2C(=O)O)CO1	74.1%	89.5%	91.9%	89.1%	96.7%	98.3%	97.6%	108%	101%	88.3%	101%	94%	109%	108%	93.1%	112%	112%	110%	113%	101%	105%	106%	65.2%	84%	85.4%	87.8%	96.6%	88.3%	95.4%	91.7%	89.6%	102%	88.5%
Oc1cc2c(cc1O)C1c3ccc(O)c(O)c3OCC1(O)C2 (stereo unspecified)	83.5%	32.7%	89.1%	88.3%	100%	102%	93%	100%	99.7%	100%	90.6%	83.8%	36.7%	99.2%	102%	91.3%	105%	101%	88.8%	108%	101%	87.7%	92.7%	34.3%	102%	91.7%	86.4%	107%	92.9%	106%	104%	111%	89.5%
CCOc1cc(/C=C2/C(=O)N(c3ccccc3)N=C2C)cc(Cl)c1OCC(=O)OC	69.2%	85.9%	84%	82.7%	81%	90%	85.9%	89.5%	75.7%	83.6%	48.4%	86.2%	95.7%	85.2%	91.1%	82%	107%	95.6%	95.8%	90.9%	71.9%	58.6%	80%	74.3%	95%	90%	64.4%	90.6%	81.5%	86.3%	85.8%	65.9%	59%
Cc1ccc(NC(=O)Nc2cc(C(F)(F)F)ccc2F)cc1Nc1ccc2c(c1)NC(=O)/C2=C\c1ccc[nH]1	108%	131%	121%	115%	118%	127%	131%	120%	111%	87.6%	16.2%	–	–	–	–	–	–	–	–	–	–	–	120%	116%	122%	111%	138%	139%	124%	124%	102%	76.2%	4.96%
C=CCc1cc(OC)c(O)c(C(=O)NCCO)c1	110%	101%	101%	103%	116%	98.7%	112%	92%	98.6%	69.3%	64.3%	97.4%	108%	108%	110%	102%	112%	98.1%	88%	99.2%	77.1%	68.6%	110%	83.8%	99.1%	102%	105%	113%	105%	103%	96.6%	78.4%	66.8%
O=C(C[C@@H]1C/C=C\CCC(=O)O[C@H](c2ccccc2)CNC1=O)NCc1ccc(Cl)cc1	77%	109%	46.9%	111%	109%	118%	128%	107%	107%	112%	118%	85.7%	102%	11.1%	88.8%	95.7%	96.3%	101%	102%	98.9%	90.9%	94%	83.6%	106%	34.3%	121%	116%	128%	122%	104%	107%	103%	102%
COC1=CC(=CC=C1)C2=CC=C(NC(=O)/C3=C(/CCC3)C(O)=O)C(=C2)F	103%	109%	116%	108%	122%	108%	119%	107%	104%	104%	76.6%	92.5%	108%	112%	116%	127%	120%	121%	118%	107%	111%	42.8%	95.6%	115%	109%	113%	103%	109%	105%	111%	111%	78.2%	30.9%
CCCCCCCCOc1ccccc1C(=O)Nc1ccc(C(=O)OCC[N+](C)(CC)CC)cc1	105%	115%	101%	105%	102%	112%	108%	96.6%	73.9%	91.2%	57.2%	98.2%	93%	84.5%	102%	96.9%	102%	97%	85.6%	49.5%	93.5%	33.4%	97%	109%	90.4%	99.9%	107%	121%	104%	95.3%	75.5%	118%	30.7%
COc1ccc2c(OCc3nnc4ccc(-c5ccccc5)nn34)ccnc2c1	106%	101%	101%	107%	120%	92.9%	107%	102%	97.4%	75.9%	15.6%	68.7%	63.1%	71.5%	82.1%	84%	78.6%	105%	78.2%	60.8%	25.6%	1.49%	94%	96.8%	90.5%	111%	115%	102%	95.3%	91.1%	81%	63.1%	3.65%
O=[N+]([O-])c1ccc(Nc2ccccc2-c2ccccc2)c2nonc12	71.9%	79.4%	90.5%	84.4%	63.4%	62%	68.8%	62.8%	78.1%	48.7%	26.4%	93.5%	91.7%	100%	102%	77.6%	52.2%	83.8%	48.9%	61.6%	32.2%	27%	72.6%	70.5%	80.5%	90.9%	58.8%	62.8%	64.8%	30.9%	54.4%	42.3%	26.1%
C[C@H]1[C@H](O)O[C@@H]2O[C@@]3(C)CC[C@H]4[C@H](C)CC[C@@H]1[C@@]24OO3	86.7%	82.3%	90.2%	92.7%	95.8%	109%	105%	98.3%	41.5%	22.4%	17.9%	82.3%	93%	90.8%	89.3%	96.9%	94.8%	93.1%	74.5%	47.1%	10.1%	5.91%	74.7%	82.1%	89%	82.8%	76%	111%	89.8%	87.1%	17.6%	8.87%	8.68%
CCCCOc1ccc(CC(=O)NO)cc1	107%	115%	105%	125%	101%	102%	109%	91.3%	101%	76.4%	51.8%	116%	99.5%	109%	116%	97%	113%	114%	104%	109%	108%	46.5%	107%	122%	108%	116%	98.7%	115%	109%	113%	107%	102%	39.9%
CCOC(CN1C(=O)[C@](CC(=O)Nc2ccc(C)cc2)(NC(=O)Nc2ccc(C)cc2)c2ccccc21)OCC	117%	101%	105%	120%	105%	116%	114%	102%	86.6%	99.6%	73.5%	99%	98.8%	113%	108%	99.4%	108%	119%	87.7%	75.9%	77.3%	79.9%	109%	115%	100%	113%	122%	113%	110%	98.4%	102%	105%	66.5%
